The record followed here is ChEMBL document CHEMBL4152385, “Synthesis, Receptor Affinity, and Antiallodynic Activity of Spirocyclic σ Receptor Ligands with Exocyclic Amino Moiety” (J Med Chem, 2018).

For data set [1], the target named is Histamine H1 receptor (Homo sapiens) (UniProt P35367). Nature of the data set: Inhibition of histamine H1 receptor (unknown origin) at 1 uM relative to control.
For data set [2], the target named is T1, Sigma intracellular receptor 2 (Rattus norvegicus, UniProt Q5U3Y7).
T1 sequence (Q5U3Y7 whole entry): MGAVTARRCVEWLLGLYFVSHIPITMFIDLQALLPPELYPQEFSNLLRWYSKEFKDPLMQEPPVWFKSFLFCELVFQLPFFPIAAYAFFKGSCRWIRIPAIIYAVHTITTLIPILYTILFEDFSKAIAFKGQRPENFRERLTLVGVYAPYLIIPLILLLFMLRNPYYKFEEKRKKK
The data set is described as follows: Displacement of [3H]-di-o-tolylguanidine from sigma2 receptor in rat liver membranes incubated for 120 mins by scintillation counting method. It counts as cell membranes, Membrane.

Data set [3] in a line: Displacement of [3H]-(+)-MK-801 from NMDA PCP binding site in pig brain cortex membrane incubated for 120 mins by scintillation counting method. The format is cell membranes, Sus scrofa.
Data set [4] in a line: in vitro. The following applies: mouse, liver microsomes.
Description: Metabolic stability in mouse liver microsomes assessed as compound remaining at 25 uM after 1 hr in presence of NADPH by LC-MS analysis
Data set [5] relates to Mus musculus. Nature of the data set: Antiallodynic activity in CD1 mouse model of capsaicin-induced mechanical allodynia assessed as effect on paw withdrawal latency time at 2 to 64 mg/kg, sc administered 30 mins before capsaicin addition and measured at 30 secs intervals. The format is functional, organism-based.
Data set [6] has as its target Sodium-dependent serotonin transporter (Homo sapiens) (UniProt P31645). Nature of the data set: Inhibition of SERT (unknown origin) at 1 uM relative to control.
In data set [7] the target is Mu-type opioid receptor (Homo sapiens, UniProt P35372). The data set is described as follows: Agonist activity at human MOR expressed in CHOK1 cells assessed as reduction in forskolin-induced intracellular cAMP increase after 45 mins by HTRF analysis. The format is functional, cell-based.
Sequence of Mu-type opioid receptor (P35372 whole entry): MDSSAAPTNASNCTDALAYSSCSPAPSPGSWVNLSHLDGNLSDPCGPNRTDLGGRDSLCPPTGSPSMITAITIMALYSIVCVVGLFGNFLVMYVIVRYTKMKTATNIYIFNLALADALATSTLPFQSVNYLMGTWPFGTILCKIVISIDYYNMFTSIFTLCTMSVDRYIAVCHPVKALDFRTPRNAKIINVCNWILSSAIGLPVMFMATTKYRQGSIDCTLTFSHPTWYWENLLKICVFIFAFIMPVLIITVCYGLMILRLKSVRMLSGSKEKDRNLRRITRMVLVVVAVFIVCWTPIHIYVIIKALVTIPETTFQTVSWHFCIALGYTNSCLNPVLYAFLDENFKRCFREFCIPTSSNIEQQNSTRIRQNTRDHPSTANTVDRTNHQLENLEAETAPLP
In data set [8] the target is 5-hydroxytryptamine receptor 2B (Homo sapiens) (UniProt P41595). The data set is described as follows: Inhibition of 5-HT2B receptor (unknown origin) at 1 uM relative to control.
Sequence of 5-hydroxytryptamine receptor 2B (Homo sapiens) (P41595 whole entry): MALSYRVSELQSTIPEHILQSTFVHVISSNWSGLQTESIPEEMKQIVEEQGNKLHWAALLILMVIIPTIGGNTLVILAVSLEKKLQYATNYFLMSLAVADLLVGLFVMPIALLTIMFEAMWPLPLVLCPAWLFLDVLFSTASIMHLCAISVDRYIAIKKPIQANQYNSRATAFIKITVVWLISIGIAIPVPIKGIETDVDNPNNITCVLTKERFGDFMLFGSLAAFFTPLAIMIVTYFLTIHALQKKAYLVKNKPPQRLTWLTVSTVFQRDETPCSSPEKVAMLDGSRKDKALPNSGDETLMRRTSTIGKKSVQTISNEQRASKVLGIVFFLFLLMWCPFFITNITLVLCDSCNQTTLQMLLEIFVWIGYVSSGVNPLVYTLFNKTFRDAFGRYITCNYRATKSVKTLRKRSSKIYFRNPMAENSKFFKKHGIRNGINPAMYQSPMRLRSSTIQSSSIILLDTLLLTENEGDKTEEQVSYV
Data set [9] deals with T2, Alpha-1A adrenergic receptor (Homo sapiens) (UniProt P35348).
T2 sequence (whole entry): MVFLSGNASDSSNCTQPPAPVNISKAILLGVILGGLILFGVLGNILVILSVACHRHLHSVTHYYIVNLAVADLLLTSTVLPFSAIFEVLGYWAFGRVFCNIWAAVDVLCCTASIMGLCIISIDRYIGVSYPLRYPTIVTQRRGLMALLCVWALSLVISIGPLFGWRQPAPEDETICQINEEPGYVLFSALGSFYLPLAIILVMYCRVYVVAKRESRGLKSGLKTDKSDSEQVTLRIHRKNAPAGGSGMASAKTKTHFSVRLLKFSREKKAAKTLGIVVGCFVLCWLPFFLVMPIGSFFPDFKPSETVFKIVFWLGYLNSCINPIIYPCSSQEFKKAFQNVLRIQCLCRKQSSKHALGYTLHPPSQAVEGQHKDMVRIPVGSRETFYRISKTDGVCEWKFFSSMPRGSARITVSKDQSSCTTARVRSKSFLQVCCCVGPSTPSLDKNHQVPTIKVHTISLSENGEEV
Nature of the data set: Inhibition of alpha-1A adrenergic receptor (unknown origin) at 1 uM relative to control.

In data set [10] the target is Glutamate receptor ionotropic, NMDA 2B (Homo sapiens, UniProt Q13224). Nature of the data set: Displacement of [3H]ifenprodil from GluN2B (unknown origin) expressed in mouse L(tk-) cell membranes incubated for 120 mins by scintillation counting method.
Sequence of Glutamate receptor ionotropic, NMDA 2B (Q13224 whole entry): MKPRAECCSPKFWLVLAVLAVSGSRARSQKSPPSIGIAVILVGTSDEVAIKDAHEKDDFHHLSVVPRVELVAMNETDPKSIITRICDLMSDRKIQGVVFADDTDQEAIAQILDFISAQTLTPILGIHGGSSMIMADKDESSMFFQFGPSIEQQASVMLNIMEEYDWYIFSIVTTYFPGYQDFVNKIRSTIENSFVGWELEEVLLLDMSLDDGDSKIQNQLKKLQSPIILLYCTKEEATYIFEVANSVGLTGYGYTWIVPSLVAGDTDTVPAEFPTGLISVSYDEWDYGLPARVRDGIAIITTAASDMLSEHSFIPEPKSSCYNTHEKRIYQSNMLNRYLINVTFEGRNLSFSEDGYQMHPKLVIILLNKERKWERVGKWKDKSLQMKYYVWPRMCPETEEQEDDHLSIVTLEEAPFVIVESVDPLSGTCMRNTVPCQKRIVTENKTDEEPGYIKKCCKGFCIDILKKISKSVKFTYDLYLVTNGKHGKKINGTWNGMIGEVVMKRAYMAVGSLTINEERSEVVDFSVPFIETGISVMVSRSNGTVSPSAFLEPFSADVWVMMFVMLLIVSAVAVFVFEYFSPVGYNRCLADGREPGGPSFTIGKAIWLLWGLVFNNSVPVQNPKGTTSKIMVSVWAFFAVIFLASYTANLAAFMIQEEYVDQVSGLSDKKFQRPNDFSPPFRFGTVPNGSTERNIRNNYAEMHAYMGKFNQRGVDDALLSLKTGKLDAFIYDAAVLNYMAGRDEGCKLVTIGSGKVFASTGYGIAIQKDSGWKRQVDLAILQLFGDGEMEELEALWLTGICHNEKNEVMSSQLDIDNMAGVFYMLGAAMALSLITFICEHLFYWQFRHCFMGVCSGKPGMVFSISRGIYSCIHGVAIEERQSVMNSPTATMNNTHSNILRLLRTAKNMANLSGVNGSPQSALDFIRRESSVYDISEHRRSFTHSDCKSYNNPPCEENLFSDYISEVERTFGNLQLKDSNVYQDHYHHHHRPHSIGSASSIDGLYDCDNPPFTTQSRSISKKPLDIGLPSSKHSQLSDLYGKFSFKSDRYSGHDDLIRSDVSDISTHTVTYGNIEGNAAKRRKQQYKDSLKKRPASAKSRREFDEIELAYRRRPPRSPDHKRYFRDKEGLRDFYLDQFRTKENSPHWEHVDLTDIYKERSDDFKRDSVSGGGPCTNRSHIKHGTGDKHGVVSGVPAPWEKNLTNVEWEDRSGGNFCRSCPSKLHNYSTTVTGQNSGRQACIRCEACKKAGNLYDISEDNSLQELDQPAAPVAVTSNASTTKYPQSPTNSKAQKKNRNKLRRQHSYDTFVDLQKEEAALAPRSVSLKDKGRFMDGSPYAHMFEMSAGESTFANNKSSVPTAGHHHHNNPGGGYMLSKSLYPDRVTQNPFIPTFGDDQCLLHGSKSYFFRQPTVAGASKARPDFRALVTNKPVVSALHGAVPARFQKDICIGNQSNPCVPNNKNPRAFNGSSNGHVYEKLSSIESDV
For data set [11], the system named is Mus musculus. Nature of the data set: Antiallodynic activity in CD1 mouse model of capsaicin-induced mechanical allodynia assessed as effect on paw withdrawal latency time at 8 to 16 mg/kg, sc administered 5 mins after sigma1 receptor agonist PRE-084 dosing followed by capsaicin addition and measured after 30 mins post compound dose. The format is functional, organism-based.

In data set [12] the test system is Mus musculus. Nature of the data set: Antiallodynic activity in CD1 mouse model of capsaicin-induced mechanical allodynia assessed as effect on paw withdrawal latency time at 32 mg/kg, sc administered 5 mins after sigma1 receptor agonist PRE-084 dosing followed by capsaicin addition and measured after 30 mins post compound dose. The format is functional, organism-based.

The target in data set [13] is Sodium-dependent dopamine transporter (Homo sapiens) (UniProt Q01959). The data set is described as follows: Inhibition of DAT (unknown origin) at 1 uM relative to control.
Sequence of Sodium-dependent dopamine transporter (Homo sapiens) (Q01959 whole entry): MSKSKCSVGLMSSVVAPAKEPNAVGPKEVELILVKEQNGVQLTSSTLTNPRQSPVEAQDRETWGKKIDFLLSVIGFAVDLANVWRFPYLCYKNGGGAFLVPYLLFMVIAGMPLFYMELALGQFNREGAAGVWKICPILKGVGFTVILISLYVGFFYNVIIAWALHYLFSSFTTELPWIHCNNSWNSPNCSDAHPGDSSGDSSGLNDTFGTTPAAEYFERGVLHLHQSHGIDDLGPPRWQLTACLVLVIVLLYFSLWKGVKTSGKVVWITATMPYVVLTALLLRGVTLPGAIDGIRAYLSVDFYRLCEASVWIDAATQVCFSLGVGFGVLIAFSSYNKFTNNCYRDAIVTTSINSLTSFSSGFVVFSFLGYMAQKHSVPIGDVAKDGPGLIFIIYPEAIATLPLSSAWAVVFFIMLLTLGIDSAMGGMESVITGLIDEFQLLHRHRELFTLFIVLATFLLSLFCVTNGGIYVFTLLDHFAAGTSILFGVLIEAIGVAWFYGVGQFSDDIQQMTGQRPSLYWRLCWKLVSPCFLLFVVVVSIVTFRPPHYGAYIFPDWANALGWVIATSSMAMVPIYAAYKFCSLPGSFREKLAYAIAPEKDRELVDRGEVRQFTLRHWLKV
Data set [14] concerns the target T3, 5-hydroxytryptamine receptor 1A (Homo sapiens) (UniProt P08908).
T3 sequence (whole entry): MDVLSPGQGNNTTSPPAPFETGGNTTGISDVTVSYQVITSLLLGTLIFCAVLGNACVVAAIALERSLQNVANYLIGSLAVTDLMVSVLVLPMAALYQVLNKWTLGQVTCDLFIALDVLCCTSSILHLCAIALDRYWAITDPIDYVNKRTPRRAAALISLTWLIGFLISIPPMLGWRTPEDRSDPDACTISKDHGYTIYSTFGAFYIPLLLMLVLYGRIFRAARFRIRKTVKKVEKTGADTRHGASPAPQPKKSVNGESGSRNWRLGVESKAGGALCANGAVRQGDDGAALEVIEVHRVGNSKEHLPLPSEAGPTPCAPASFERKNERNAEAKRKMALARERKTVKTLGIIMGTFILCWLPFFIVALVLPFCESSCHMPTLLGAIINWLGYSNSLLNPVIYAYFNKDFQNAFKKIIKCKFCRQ
Nature of the data set: Inhibition of 5-HT1A receptor (unknown origin) at 1 uM relative to control.

In data set [15] the target is Sodium-dependent noradrenaline transporter (Homo sapiens) (UniProt P23975). Nature of the data set: Inhibition of NET (unknown origin) at 1 uM relative to control.
Sequence of Sodium-dependent noradrenaline transporter (Homo sapiens) (P23975 whole entry): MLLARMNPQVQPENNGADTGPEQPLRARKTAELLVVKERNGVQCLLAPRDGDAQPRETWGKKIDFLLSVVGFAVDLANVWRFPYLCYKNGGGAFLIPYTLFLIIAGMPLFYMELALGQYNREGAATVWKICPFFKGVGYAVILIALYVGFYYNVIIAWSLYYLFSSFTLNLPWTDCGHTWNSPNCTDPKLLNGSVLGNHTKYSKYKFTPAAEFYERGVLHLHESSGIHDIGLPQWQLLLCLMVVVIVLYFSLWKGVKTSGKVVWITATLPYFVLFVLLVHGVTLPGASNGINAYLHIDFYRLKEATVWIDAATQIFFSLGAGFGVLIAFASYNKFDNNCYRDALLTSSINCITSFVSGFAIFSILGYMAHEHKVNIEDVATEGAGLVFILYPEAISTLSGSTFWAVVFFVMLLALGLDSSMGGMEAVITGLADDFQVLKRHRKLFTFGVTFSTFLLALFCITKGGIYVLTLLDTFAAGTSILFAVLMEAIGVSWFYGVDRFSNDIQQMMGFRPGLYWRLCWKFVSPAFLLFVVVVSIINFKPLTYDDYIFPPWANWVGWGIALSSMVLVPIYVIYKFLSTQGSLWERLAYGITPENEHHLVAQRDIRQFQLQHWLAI
The target in data set [16] is T4, Sigma non-opioid intracellular receptor 1 (Cavia porcellus, UniProt Q60492).
T4 sequence (Q60492 whole entry): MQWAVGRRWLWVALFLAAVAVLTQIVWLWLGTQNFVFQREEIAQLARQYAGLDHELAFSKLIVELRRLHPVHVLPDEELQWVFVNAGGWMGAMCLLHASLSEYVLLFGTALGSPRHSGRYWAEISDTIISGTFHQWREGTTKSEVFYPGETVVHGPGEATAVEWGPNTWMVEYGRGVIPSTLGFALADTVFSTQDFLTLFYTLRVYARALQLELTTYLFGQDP
Data set [17] concerns the target T4, Sigma non-opioid intracellular receptor 1. Nature of the data set: Displacement of [3H]-(+)-pentazocine from sigma1 receptor in guinea pig brain cortex membranes incubated for 120 mins by scintillation counting method. The format is cell membranes.

SMILES strings stand for the structures. Active and inactive are the calls of the source. The calls are words filed in the database; no cut-off is given here.

Sequence of Histamine H1 receptor (Homo sapiens) (P35367 whole entry): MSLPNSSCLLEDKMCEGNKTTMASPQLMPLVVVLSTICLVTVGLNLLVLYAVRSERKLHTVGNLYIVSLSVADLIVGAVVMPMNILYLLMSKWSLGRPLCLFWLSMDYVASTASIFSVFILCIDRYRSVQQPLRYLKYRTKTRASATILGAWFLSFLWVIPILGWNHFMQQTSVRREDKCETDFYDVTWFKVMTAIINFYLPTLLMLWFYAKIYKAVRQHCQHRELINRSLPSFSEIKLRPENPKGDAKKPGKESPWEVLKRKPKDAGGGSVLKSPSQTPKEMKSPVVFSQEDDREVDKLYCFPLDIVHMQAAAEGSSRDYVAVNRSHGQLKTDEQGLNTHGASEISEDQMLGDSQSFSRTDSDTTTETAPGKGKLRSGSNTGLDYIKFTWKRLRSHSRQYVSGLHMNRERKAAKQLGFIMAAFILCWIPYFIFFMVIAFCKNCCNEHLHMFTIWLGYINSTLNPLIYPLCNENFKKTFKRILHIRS
Sequence of Sodium-dependent serotonin transporter (Homo sapiens) (P31645 whole entry, looked up): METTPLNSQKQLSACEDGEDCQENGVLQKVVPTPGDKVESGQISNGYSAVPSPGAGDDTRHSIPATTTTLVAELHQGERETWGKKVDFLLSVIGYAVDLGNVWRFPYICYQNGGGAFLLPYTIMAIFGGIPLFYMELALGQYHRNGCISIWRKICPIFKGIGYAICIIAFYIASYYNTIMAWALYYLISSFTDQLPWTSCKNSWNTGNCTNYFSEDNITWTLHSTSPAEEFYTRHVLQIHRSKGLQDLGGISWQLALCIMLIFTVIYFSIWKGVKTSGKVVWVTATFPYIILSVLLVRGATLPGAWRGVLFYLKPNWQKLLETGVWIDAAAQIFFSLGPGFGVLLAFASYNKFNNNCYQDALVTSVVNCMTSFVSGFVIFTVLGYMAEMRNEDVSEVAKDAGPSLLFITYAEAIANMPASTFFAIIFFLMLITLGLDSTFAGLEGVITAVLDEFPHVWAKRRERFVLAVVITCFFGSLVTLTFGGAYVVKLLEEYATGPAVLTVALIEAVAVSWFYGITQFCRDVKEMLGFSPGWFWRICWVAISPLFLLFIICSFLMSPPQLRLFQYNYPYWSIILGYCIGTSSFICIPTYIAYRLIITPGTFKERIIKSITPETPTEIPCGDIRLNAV

Take `FCC[C@@H]1Cc2ccccc2C2(CCC(N3CCN(C4CCCCC4)CC3)CC2)O1` (some centres not stated): the inhibition is under 50% in data set [1]; under 50% in data set [6]; under 50% in [8]; under 50% in data set [9]; under 50% in data set [13]; 62% in data set [14]. This compound had an inhibition in [15] of under 50%. In addition, the inhibitory constant (Ki) in data set [2] was 45 nM; in data set [3], over 1000 nM; in data set [10], 65 nM. Further, the share remaining at 1 h, 25 µM in [4] was found to be 71.8%. Further, the outcome in [5] and in data set [12] was Active. In addition, the EC50 in data set [7] came to 1760 nM. Besides, the outcome in data set [11] was inactive.

For the compound `Fc1ccc(-n2cc(CCCCN3CCC4(CC3)OCc3ccccc34)c3ccccc32)cc1` [SIRAMESINE], the Ki in [16] and in [17] was 17 nM throughout.
